# Data as given in publication PMC5418314, “First-in-human phase I study of SOR-C13, a TRPV6 calcium channel inhibitor, in patients with advanced solid tumors” (Investigational New Drugs, 2017).
# pIC50: −log10 of the molar value. Ends that are not written are not given here.
# Tests used:
# [1] = test system: advanced solid tumors of epithelial origin; test: Phase I anti-tumor activity (RECIST 1.1); type: in vivo, human
# Procedure: (§1) Anti-tumor activity was evaluated by radiologic assessment of tumor size according to the New Response Evaluation Criteria in Solid Tumors (RECIST), Revised Guideline Version 1.1 [20] and changes in tumor-specific biomarker levels. The baseline radiologic assessment was performed ≤30 days prior to the first SOR-C13 dose. Tumor response was assessed after two cycles of treatment (between Days 15–21 of Cycle 2). For patients receiving additional cycles, tumor response was assessed after every 2 additional cycles, or earlier at the investigator’s discretion or as required by standard of care at the site.
# TRPV6 = conditions: read-out: IC50, inhibition of TRPV6; cited from earlier work
# Text: SOR-C13 is a short segment (13-mer) from the C-terminus of a paralytic peptide soricidin (accession number P0C2P6) discovered in the saliva of the Northern Short-tailed shrew (Blarina brevicauda), abundant in eastern North America. While not paralytic themselves, C-series peptides blocked calcium uptake by ovarian cancer cells in in vitro studies. […] TRPV6 is predominantly found in non-excitable tissues wi ...
# CA 19–9 = CA 19–9 tumor biomarker levels in pancreatic cancer patients; type: in vivo, human
# Procedure: as §1
# For pharmacodynamic information changes of the plasma biomarkers ‘cleaved cytokeratin 18’, (ccK18) and TRPV6 mRNA levels, in response to treatment, were evaluated. Blood samples for the assessment of ccK18, TRPV6 mRNA or other tumor-specific biomarkers were collected within 24 h prior to the first infusion of SOR-C13, on Day 1 of Cycle 2, once between Days 15–21 of Cycle 2, during additional cycles, and at the Month 1 follow-up. We set a low basal level of ccK18 as 250 U/L as a cut-off point representing the 95th percentile median of healthy volunteers (Peviva M30 Apoptosense ELISA assay product literature).
# ovarian cancer xenograft = test: xenograft model of ovarian cancer, tumor inhibition; type: in vivo
# breast cancer xenograft = test: xenograft model of breast cancer, tumor inhibition; type: in vivo
sequence,measurement,setting,value
KEFLHPSKVDLPR [SOR-C13],patients with stable disease after two cycles,"[1]; 1.375 mg/kg, 90-min infusion",two out of the three patients
same,patients with stable disease,"[1]; 12 of 22 evaluable patients, after two cycles, RECIST 1.1",54.5%
same,patients with stable disease after 2 cycles,[1]; ovarian cancer (OVca) patients,two of the four
same,duration of stable disease,"[1]; pancreatic cancer patient, 2.75 mg/kg, 90-min infusions",four cycles
same,duration of stable disease,"[1]; pancreatic cancer patient, 6.2 mg/kg, 90-min infusions",over 10 cycles
same,reduction from baseline in the sum of tumor diameters,"[1]; pancreatic cancer patient, 6.2 mg/kg, 90-min infusions, after 4 cycles",27%
same,duration of stable disease (cycles received),"[1]; patient with adenoid cystic carcinoma of the tongue, 4.13 mg/kg",18 cycles
same,pIC50,TRPV6,7.85
same,decrease in CA 19–9,"CA 19–9; pancreatic cancer patient treated at 6.25 mg/kg, after cycle 2",29%
same,decrease in CA 19–9,"CA 19–9; pancreatic cancer patient, 6.2 mg/kg, after cycle 4",55%
same,inhibition of tumors,ovarian cancer xenograft,effective
same,inhibition of tumors,breast cancer xenograft,effective
